In brackets after ≈: the same amount, converted by molar mass.
Assays:
[1] = tested on: H9 (acute lymphoblastic leukemia, ALL); experiment: MTT growth inhibition of leukemia cells, 72 h; type: cell-based, human; conditions: Homo sapiens, H9, 72 h; for IC50: read-out: IC50; for IC90: read-out: IC90
Procedure, shortened: (§1)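 MTT assay of viable cells following 72 h compound treatment at 37 °C. Cultures contained 6000 cells per well in RPMI-1640 plus 10% fetal bovine serum.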

[2] = tested on: Jurkat (acute lymphoblastic leukemia, ALL); experiment: MTT growth inhibition of leukemia cells, 72 h; type: cell-based, human; conditions: Homo sapiens, 72 h; for IC50: read-out: IC50; for IC90: read-out: IC90
Procedure, shortened: as §1

[3] = tested on: K562/adr (drug-resistant, chronic myeloid leukemia, CML); experiment: MTT growth inhibition of leukemia cells, 72 h; type: cell-based, human; conditions: Homo sapiens, K562/Adr; for IC50: read-out: IC50; for IC90: read-out: IC90
Procedure, shortened: as §1

[4] = tested on: Kasumi-1 (acute myeloid leukemia M2 type, AML-M2); experiment: MTT growth inhibition of leukemia cells, 72 h; type: cell-based, human; conditions: Homo sapiens, Kasumi-1, 72 h; for IC50: read-out: IC50; for IC90: read-out: IC90
Procedure, shortened: as §1

[5] = tested on: NB4 (acute promyelocytic leukemia, AML); experiment: MTT growth inhibition of leukemia cells, 72 h; type: cell-based, human; conditions: Homo sapiens, NB4, 72 h; for IC50: read-out: IC50; for IC90: read-out: IC90
Procedure, shortened: as §1

[6] = tested on: RPMI8226 (multiple myeloma); experiment: MTT growth inhibition of multiple myeloma cells, 72 h; type: cell-based, human; conditions: Homo sapiens, RPMI 8226, 72 h; for IC50: read-out: IC50; for IC90: read-out: IC90
Procedure, shortened: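 RPMI8226 myeloma cells, 6000 per well in 1640 medium with 10% FBS, exposed to compounds at a range of concentrations (diluted from 10 mg/mL DMSO stock) for 72 h at 37° C, 5% CO2. Viable cells then determined by MTT.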

[7] = tested on: A549 (human lung cancer); experiment: MTT growth inhibition of human solid tumor cells, 72 h; type: cell-based; conditions: Homo sapiens, A549, 72 h; for IC50: read-out: IC50; for IC90: read-out: IC90
Procedure, shortened: (§2)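 Cells were seeded at 4000 per well in DMEM High Glucose with 10% fetal bovine serum and left 24 h at 37° C, 5% CO2. Tanshinone I derivatives were added at a range of concentrations, diluted in medium from a 10 mg/mL DMSO stock, and viable cell concentration was then determined.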

[8] = tested on: Becap37 (human breast cancer cell); experiment: as above; type: cell-based; conditions: Homo sapiens, Becap-37, 72 h; for IC50: read-out: IC50; for IC90: read-out: IC90
Procedure, shortened: as §2

[9] = tested on: CNE (nasopharyngeal carcinoma cell); experiment: as above; type: cell-based; conditions: Homo sapiens; for IC50: read-out: IC50; for IC90: read-out: IC90
Procedure, shortened: as §2

[10] = tested on: CaES-17 (esophageal cancer cell); experiment: as above; type: cell-based; conditions: Homo sapiens, CaEs17, CaEs-17, 72 h; for IC50: read-out: IC50; for IC90: read-out: IC90
Procedure, shortened: as §2

[11] = tested on: Hela (human cervical cancer cell); experiment: as above; type: cell-based; conditions: Homo sapiens, HeLa, 72 h; for IC50: read-out: IC50; for IC90: read-out: IC90
Procedure, shortened: as §2

[12] = tested on: Hep G2 (human liver cancer cell); experiment: as above; type: cell-based; conditions: Homo sapiens, HepG2, Hep G2, 72 h; for IC50: read-out: IC50; for IC90: read-out: IC90
Procedure, shortened: as §2

[13] = tested on: Hep-2 (laryngeal carcinoma); experiment: as above; type: cell-based; conditions: Homo sapiens, HEp-2, 72 h; for IC50: read-out: IC50; for IC90: read-out: IC90
Procedure, shortened: as §2

[14] = tested on: MG63 (osteosarcoma); experiment: as above; type: cell-based; conditions: for IC50 / IC90: Homo sapiens, MG-63, 72 h; for IC50: read-out: IC50; for IC90: read-out: IC90
Procedure, shortened: as §2

[15] = tested on: MGC 803 (human gastric cancer cell); experiment: as above; type: cell-based; conditions: Homo sapiens, MGC-803, 72 h; for IC50: read-out: IC50; for IC90: read-out: IC90
Procedure, shortened: as §2

[16] = tested on: PANC-1 (pancreatic cancer); experiment: as above; type: cell-based; conditions: Homo sapiens, PANC-1, 72 h; for IC50: read-out: IC50; for IC90: read-out: IC90
Procedure, shortened: as §2

[17] = tested on: PC-3 (prostate cancer); experiment: as above; type: cell-based; conditions: Homo sapiens, PC-3, 72 h; for IC50: read-out: IC50; for IC90: read-out: IC90
Procedure, shortened: as §2

[18] = tested on: RKO (human colon adenocarcinoma cell); experiment: as above; type: cell-based; conditions: Homo sapiens; for IC50: read-out: IC50; for IC90: read-out: IC90
Procedure, shortened: as §2

[19] = tested on: SK-OV-3 (ovarian cancer cell); experiment: as above; type: cell-based; conditions: Homo sapiens, SK-OV-3, 72 h; for IC50: read-out: IC50; for IC90: read-out: IC90
Procedure, shortened: as §2

[20] = tested on: U87 MG (malignant glioma cell); experiment: as above; type: cell-based; conditions: Homo sapiens, U-87 MG, U87-MG, 72 h; for IC50: read-out: IC50; for IC90: read-out: IC90
Procedure, shortened: as §2

With `Cc1c(CN(C)Cc2ccccc2)oc2c1C(=O)C(=O)c1c-2ccc2c(C)cccc12` [BS-TA-B01] the IC50 [1] was 0.7 µg/mL (≈ 1.71 µM), the IC90 [1] was 2.3 µg/mL (≈ 5.62 µM) and the IC50 [2] was 0.96 µg/mL (≈ 2.34 µM). It also gave an IC90 [2] of 5.3 µg/mL (≈ 12.9 µM), an IC50 [3] of 1.13 µg/mL (≈ 2.76 µM) and an IC90 [3] of 2.95 µg/mL (≈ 7.2 µM). The IC50 [4] was 0.66 µg/mL (≈ 1.61 µM), the IC90 [4] was 1.91 µg/mL (≈ 4.66 µM) and the IC50 [5] was 0.26 µg/mL (≈ 0.635 µM). For the same compound, the IC90 [5] was 0.96 µg/mL (≈ 2.34 µM), the IC50 [6] was 0.52 µg/mL (≈ 1.27 µM) and the IC90 [6] was 2.9 µg/mL (≈ 7.08 µM). For the same compound, the IC50 [7] was 1.7 µg/mL (≈ 4.15 µM), the IC90 [7] was 17 µg/mL (≈ 41.5 µM) and the IC50 [8] was 0.43 µg/mL (≈ 1.05 µM). It also gave an IC90 [8] of 3.73 µg/mL (≈ 9.11 µM), an IC50 [9] of 0.817 µg/mL (≈ 2 µM) and an IC90 [9] of 39 µg/mL (≈ 95.2 µM). The IC50 [10] was 0.97 µg/mL (≈ 2.37 µM), the IC90 [10] was 3.81 µg/mL (≈ 9.3 µM) and the IC50 [11] was 1.31 µg/mL (≈ 3.2 µM). It also gave an IC90 [11] of 16.2 µg/mL (≈ 39.6 µM), an IC50 [12] of 1.25 µg/mL (≈ 3.05 µM) and an IC90 [12] of 9.41 µg/mL (≈ 23 µM). For the same compound, the IC50 [13] was 0.88 µg/mL (≈ 2.15 µM), the IC90 [13] was 29.6 µg/mL (≈ 72.3 µM) and the IC50 [14] was 0.38 µg/mL (≈ 0.928 µM). For the same compound, the IC90 [14] was 14.9 µg/mL (≈ 36.5 µM), the “improvement of anti-MG63 activity as compared with tanshinone I” value ([14]; MG63, vs tanshinone I) was roughly 3 fold and the IC50 [15] was 0.79 µg/mL (≈ 1.93 µM). It also gave an IC90 [15] of 7.25 µg/mL (≈ 17.7 µM), an IC50 [16] of 0.81 µg/mL (≈ 1.98 µM) and an IC90 [16] of 16 µg/mL (≈ 39.1 µM). For the same compound, the IC50 [17] was 1.83 µg/mL (≈ 4.47 µM), the IC90 [17] was 16 µg/mL (≈ 39.1 µM) and the IC50 [18] was 0.17 µg/mL (≈ 0.415 µM). The IC90 [18] was 16 µg/mL (≈ 39.1 µM), the IC50 [19] was 5.41 µg/mL (≈ 13.2 µM) and the IC90 [19] was 22.8 µg/mL (≈ 55.8 µM). It also gave an IC50 [20] of 0.74 µg/mL (≈ 1.81 µM) and an IC90 [20] of 8 µg/mL (≈ 19.5 µM).
`Cc1c(CNCC2CC2)oc2c1C(=O)C(=O)c1c-2ccc2c(C)cccc12` [BS-TA-B07] showed an IC50 [1] of 2.9 µg/mL (≈ 8.07 µM), an IC90 [1] of 7.5 µg/mL (≈ 20.9 µM) and an IC50 [2] of 3.11 µg/mL (≈ 8.65 µM). For the same compound, the IC90 [2] was 9.52 µg/mL (≈ 26.5 µM), the IC50 [3] was 3.22 µg/mL (≈ 8.96 µM) and the IC90 [3] was 6.38 µg/mL (≈ 17.8 µM). It also gave an IC50 [4] of 1.07 µg/mL (≈ 2.98 µM), an IC90 [4] of 3.86 µg/mL (≈ 10.7 µM) and an IC50 [5] of 1.35 µg/mL (≈ 3.76 µM). For the same compound, the IC90 [5] was 3.74 µg/mL (≈ 10.4 µM), the IC50 [6] was 3.46 µg/mL (≈ 9.63 µM) and the IC90 [6] was 10.2 µg/mL (≈ 28.3 µM). The IC50 [7] was 5.98 µg/mL (≈ 16.6 µM), the IC90 [7] was 21.9 µg/mL (≈ 61.1 µM) and the IC50 [8] was 5.23 µg/mL (≈ 14.6 µM). It also gave an IC90 [8] of 14.3 µg/mL (≈ 39.9 µM), an IC50 [9] of 9 µg/mL (≈ 25 µM) and an IC90 [9] greater than 16 µg/mL. The IC50 [10] was 9.16 µg/mL (≈ 25.5 µM), the IC90 [10] was 19.7 µg/mL (≈ 54.8 µM) and the IC50 [11] was 6.86 µg/mL (≈ 19.1 µM). It also gave an IC90 [11] of 18.5 µg/mL (≈ 51.4 µM), an IC50 [12] of 8.46 µg/mL (≈ 23.5 µM) and an IC90 [12] greater than 16 µg/mL. It also gave an IC50 [13] of 9.45 µg/mL (≈ 26.3 µM), an IC90 [13] greater than 16 µg/mL and an IC50 [14] of 8.14 µg/mL (≈ 22.6 µM). For the same compound, the IC90 [14] was greater than 16 µg/mL, the IC50 [15] was 6.9 µg/mL (≈ 19.2 µM) and the IC90 [15] was 17.1 µg/mL (≈ 47.7 µM). It also gave an IC50 [16] of 1.33 µg/mL (≈ 3.7 µM), an IC90 [16] of 8.21 µg/mL (≈ 22.8 µM) and an IC50 [17] of 7.05 µg/mL (≈ 19.6 µM). The IC90 [17] was 16 µg/mL (≈ 44.5 µM), the IC50 [18] was 0.93 µg/mL (≈ 2.59 µM) and the IC90 [18] was 17 µg/mL (≈ 47.4 µM). The IC50 [19] was greater than 16 µg/mL, the IC90 [19] was greater than 16 µg/mL and the IC50 [20] was 10.1 µg/mL (≈ 28 µM). The IC90 [20] was 21.2 µg/mL (≈ 59 µM).
